Reference: ChEMBL document CHEMBL4732113, “Exploiting the tolerant region I of the non-nucleoside reverse transcriptase inhibitor (NNRTI) binding pocket. Part 2: Discovery of diarylpyrimidine derivatives as potent HIV-1 NNRTIs with high Fsp values and favorable drug-like properties” (Eur J Med Chem, 2021)

Experiments:
[1] = test system: Human immunodeficiency virus 1; test: Antiviral activity against HIV1 harboring Y188L mutant infected in human MT4 cells assessed as reduction in virus-induced cytopathic effect by MTT assay; format: functional, organism-based; conditions: Human immunodeficiency virus 1, MT4
[2] = Cytotoxicity against human MT4 cells assessed as reduction in cell viability by MTT assay; format: cell-based; conditions: MT4 cells
[3] = test system: Human immunodeficiency virus 1; test: Antiviral activity against HIV1 harboring L100I mutant infected in human MT4 cells assessed as reduction in virus-induced cytopathic effect by MTT assay; format: functional, organism-based; conditions: Human immunodeficiency virus 1, MT4
[4] = test system: Human immunodeficiency virus 1; test: Antiviral activity against HIV1 3B infected in human MT4 cells assessed as reduction in virus-induced cytopathic effect by MTT assay; format: functional, organism-based; conditions: Human immunodeficiency virus 1, 3B
[5] = test system: Human immunodeficiency virus 1; test: Antiviral activity against HIV1 harboring E138K mutant infected in human MT4 cells assessed as reduction in virus-induced cytopathic effect by MTT assay; format: functional, organism-based; conditions: Human immunodeficiency virus 1, MT4
[6] = test system: Human immunodeficiency virus 1; test: Antiviral activity against HIV1 RES056 harboring K103N/Y181C double mutant infected in human MT4 cells assessed as reduction in virus-induced cytopathic effect by MTT assay; format: functional, organism-based; conditions: Human immunodeficiency virus 1, RES056, MT4; read-out: EC50
[7] = test system: Human immunodeficiency virus 1; test: Antiviral activity against HIV1 harboring F227L/V106A mutant infected in human MT4 cells assessed as reduction in virus-induced cytopathic effect by MTT assay; format: functional, organism-based; conditions: Human immunodeficiency virus 1, MT4
[8] = test system: Human immunodeficiency virus 1; test: Antiviral activity against HIV1 harboring Y181C mutant infected in human MT4 cells assessed as reduction in virus-induced cytopathic effect by MTT assay; format: functional, organism-based; conditions: Human immunodeficiency virus 1, MT4
[9] = Selectivity index, ratio of CC50 for human MT4 cells to EC50 for antiviral activity against HIV 3B infected in human MT4 cells; format: toxicity, cell-based; conditions: read-out: Ratio CC50/EC50
[10] = target: Human immunodeficiency virus type 1 reverse transcriptase (Human immunodeficiency virus 1, UniProt Q72547); test: Inhibition of HIV1 reverse transcriptase assessed as reduction in biotin-dUTP incorporation into template incubated for 1 hr by ELISA
[11] = Selectivity index, ratio of CC50 for human MT4 cells to EC50 for antiviral activity against HIV HIV1 RES056 harboring K103N/Y181C double mutant infected in human MT4 cells; format: toxicity, cell-based; conditions: read-out: Ratio CC50/EC50
[12] = test system: Human immunodeficiency virus 1; test: Antiviral activity against HIV1 harboring K103N mutant infected in human MT4 cells assessed as reduction in virus-induced cytopathic effect by MTT assay; format: functional, organism-based; conditions: Human immunodeficiency virus 1, MT4
[13] = test system: Human immunodeficiency virus 1; test: Potency index, ratio of etravirine EC50 to test compound EC50 for antiviral activity against HIV1 3B infected in human MT4 cells assessed as reduction in virus-induced cytopathic effect by MTT assay; format: functional

Structure (SMILES)	EC50 [1] [nM]	CC50 [2] [nM]	EC50 [3] [nM]	EC50 ([4]; read-out: EC50) [nM]	EC50 [5] [nM]	EC50 [6] [nM]	EC50 [7] [nM]	EC50 [8] [nM]	selectivity ratio [9]	EC50 ([4]; read-out: pEC50 (converted)) [nM]	IC50 [10] [nM]	selectivity ratio [11]	EC50 [12] [nM]	Ratio EC50 [13]
Cc1ccnc2c1NC(=O)c1cccnc1N2C1CC1 [NEVIRAPINE]	9070	> 15000	620	150	170	> 15000	8040	5050						
Cc1cc(C#N)cc(C)c1Oc1ccnc(Nc2ccc(CN3CCN(S(=O)(=O)C(C)C)CC3)cc2)n1		4540		30		> 4540			152	30.2	73	< 1		
Cc1cc(C#N)cc(C)c1Oc1ccnc(Nc2ccc(CN3CCN(S(=O)(=O)N(C)C)CC3)cc2)n1		4460		48		> 4460			93			< 1		
O=C1Nc2ccc(Cl)cc2[C@@](C#CC2CC2)(C(F)(F)F)O1 [EFAVIRENZ]	260	> 6340		2.8		340		5		2.82				
Cc1cc(C#N)cc(C)c1Oc1ccnc(Nc2ccc(CN3CCSCC3)cc2)n1		24000		28		> 24000			847			< 1		
Cc1cc(/C=C/C#N)cc(C)c1Oc1ccnc(Nc2ccc(CN3CCN(S(=O)(=O)C(C)C)CC3)cc2)n1	> 3810	3810	25	5.6	36	> 3810	230	69	685			< 1	8.5	
Nc1ccn([C@@H]2CS[C@H](CO)O2)c(=O)n1 [LAMIVUDINE]	2710	> 87200	1460	6000	6110	6830	2360	3200	> 15			> 13	2740	
Cc1cc(C#N)cc(C)c1Oc1ccnc(Nc2ccc(CN3CCCN(S(=O)(=O)N(C)C)CC3)cc2)n1		4190		160		> 4190			26			< 1		
Cc1cc(/C=C/C#N)cc(C)c1Oc1ccnc(Nc2ccc(CN3CCCN(S(=O)(=O)C(C)C)CC3)cc2)n1		4640		19		> 4640			244			< 1		
Cc1cc(/C=C/C#N)cc(C)c1Oc1ccnc(Nc2ccc(CN3CC[S+]([O-])CC3)cc2)n1	5200	23400	20	2.4	9.8	2680	350	67	9860	2.4	51	9	3.4	2
Cc1cc(C#N)cc(C)c1Oc1nc(Nc2ccc(C#N)cc2)nc(N)c1Br [ETRAVIRINE]	19	> 4590	8.3	4.2	9.8	61	26	15		4.17				
Cc1cc(/C=C/C#N)cc(C)c1Oc1ccnc(Nc2ccc(CN3CCN(S(=O)(=O)C4CC4)CC3)cc2)n1	> 4350	4350	17	6.1	31	> 4350	360	64	717			< 1	6.8	
Cc1cc(C#N)cc(C)c1Oc1ccnc(Nc2ccc(CN3CC[S+]([O-])CC3)cc2)n1		54700		17		> 54700			3250			< 1		
CCS(=O)(=O)N1CCN(Cc2ccc(Nc3nccc(Oc4c(C)cc(C#N)cc4C)n3)cc2)CC1		5240		17		> 5240			310			< 1		
